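96-well plates; 48 h exposure; 5 concentrations. Endpoints by linear interpolation between flanking doses. Not reached: highest tested concentration assigned. TGI is the concentration that stops growth completely.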
Assays:
Assay in all cases: NCI-60 cell line screen, 48 h
[1] = test system: UACC-257 melanoma
[2] = test system: IGROV1 ovarian
[3] = test system: NCI-H23 lung
[4] = test system: HOP-18 NSCLC
[5] = test system: HCT-116 colon
[6] = test system: MOLT-4 leukemia
[7] = test system: HCT-15 colon
[8] = test system: UACC-62 melanoma
[9] = test system: SNB-78 CNS
[10] = test system: ACHN renal
[11] = test system: XF 498 CNS
[12] = test system: M19-MEL melanoma
[13] = test system: SR leukemia
[14] = test system: SK-OV-3 ovarian
[15] = test system: TK-10 renal
[16] = test system: HCC-2998 colon
[17] = test system: SNB-19 CNS
[18] = test system: NCI-H226 lung
[19] = test system: SK-MEL-2 melanoma
[20] = test system: OVCAR-3 ovarian
[21] = test system: K-562 leukemia
[22] = test system: SF-268 CNS
[23] = test system: SW-620 colon
[24] = test system: SK-MEL-5 melanoma
[25] = test system: OVCAR-4 ovarian
[26] = test system: SF-295 CNS
[27] = test system: KM12 colon
[28] = test system: MALME-3M melanoma
[29] = test system: 786-0 renal
[30] = test system: M14 melanoma
[31] = test system: RXF 393 renal
[32] = test system: LOX IMVI melanoma
[33] = test system: DMS 273 small cell lung
[34] = test system: HOP-62 NSCLC
[35] = test system: OVCAR-8 ovarian
[36] = test system: KM20L2 colon
[37] = test system: COLO 205 colon
[38] = test system: CAKI-1 renal
[39] = test system: HOP-92 NSCLC
[40] = test system: SN12C renal
[41] = test system: A498 renal
[42] = test system: EKVX NSCLC
[43] = test system: NCI-H522 lung
[44] = test system: HL-60(TB) leukemia
[45] = test system: SNB-75 CNS
[46] = test system: OVCAR-5 ovarian
[47] = test system: SK-MEL-28 melanoma
[48] = test system: SF-539 CNS
[49] = test system: NCI-H460 lung
[50] = test system: DLD-1 colon
[51] = test system: HT29 colon
[52] = test system: A549 NSCLC
[53] = test system: UO-31 renal
[54] = test system: CCRF-CEM leukemia
[55] = test system: LXFL 529 NSCLC
[56] = test system: RPMI-8226 leukemia
[57] = test system: DMS 114 small cell lung

**Q.** For `CN(C)CC1CCC(=C2CCCC2)C1=O` (stereo unspecified), which TGI [1] is on record?
**A.** 31.8 µM

**Q.** What about the TGI [2] of the same compound?
**A.** 34.4 µM

**Q.** And the TGI [3]?
**A.** 36.3 µM

**Q.** And the TGI [4]?
**A.** 31.2 µM

**Q.** And the TGI [5]?
**A.** 29.3 µM

**Q.** And the TGI [6]?
**A.** > 20.7 µM

**Q.** What about the TGI [7] of the same compound?
**A.** 15.9 µM

**Q.** And the TGI [8]?
**A.** 31.4 µM

**Q.** What about the TGI [9] of the same compound?
**A.** 34.4 µM

**Q.** And the TGI [10]?
**A.** 21.4 µM

**Q.** And the TGI [11]?
**A.** 12.4 µM

**Q.** What about the TGI [12] of the same compound?
**A.** 32.9 µM

**Q.** What about the TGI [13] of the same compound?
**A.** 21.1 µM

**Q.** And the TGI [14]?
**A.** > 100 µM

**Q.** What about the TGI [15] of the same compound?
**A.** 25.2 µM

**Q.** And the TGI [16]?
**A.** 32.5 µM

**Q.** What about the TGI [17] of the same compound?
**A.** > 100 µM

**Q.** And the TGI [18]?
**A.** 32.2 µM

**Q.** What about the TGI [19] of the same compound?
**A.** 33.5 µM

**Q.** And the TGI [20]?
**A.** 26.3 µM

**Q.** And the TGI [21]?
**A.** 8.76 µM

**Q.** And the TGI [22]?
**A.** 26.4 µM

**Q.** And the TGI [23]?
**A.** > 20.9 µM

**Q.** What about the TGI [24] of the same compound?
**A.** 32 µM

**Q.** And the TGI [25]?
**A.** 31 µM

**Q.** And the TGI [26]?
**A.** > 100 µM

**Q.** And the TGI [27]?
**A.** 25.6 µM

**Q.** What about the TGI [28] of the same compound?
**A.** 11 µM

**Q.** And the TGI [29]?
**A.** 19.7 µM

**Q.** What about the TGI [30] of the same compound?
**A.** 23.3 µM

**Q.** What about the TGI [31] of the same compound?
**A.** 27.9 µM

**Q.** What about the TGI [32] of the same compound?
**A.** 31.8 µM

**Q.** What about the TGI [33] of the same compound?
**A.** 34.8 µM

**Q.** And the TGI [34]?
**A.** 19.1 µM

**Q.** What about the TGI [35] of the same compound?
**A.** 39.1 µM

**Q.** And the TGI [36]?
**A.** 36.3 µM

**Q.** And the TGI [37]?
**A.** 33.4 µM

**Q.** And the TGI [38]?
**A.** > 100 µM

**Q.** And the TGI [39]?
**A.** 20.1 µM

**Q.** And the TGI [40]?
**A.** 24.9 µM

**Q.** What about the TGI [41] of the same compound?
**A.** 35.4 µM

**Q.** What about the TGI [42] of the same compound?
**A.** 34.7 µM

**Q.** What about the TGI [43] of the same compound?
**A.** 3.39 µM

**Q.** And the TGI [44]?
**A.** 15.4 µM

**Q.** And the TGI [45]?
**A.** 30.7 µM

**Q.** And the TGI [46]?
**A.** 30.9 µM

**Q.** What about the TGI [47] of the same compound?
**A.** 27.4 µM

**Q.** And the TGI [48]?
**A.** 40 µM

**Q.** What about the TGI [49] of the same compound?
**A.** 45.8 µM

**Q.** What about the TGI [50] of the same compound?
**A.** 7.02 µM

**Q.** What about the TGI [51] of the same compound?
**A.** 32.6 µM

**Q.** And the TGI [52]?
**A.** 39.8 µM

**Q.** What about the TGI [53] of the same compound?
**A.** 32.3 µM

**Q.** And the TGI [54]?
**A.** 9.54 µM

**Q.** And the TGI [55]?
**A.** 12.6 µM

**Q.** What about the TGI [56] of the same compound?
**A.** 4.81 µM

**Q.** And the TGI [57]?
**A.** 25 µM

**Q.** How did the TGI [1] turn out when `C/C(CCn1[nH]c(=O)ccc1=O)=N\N=C(N)N` was run?
**A.** > 100 µM

**Q.** What about the TGI [2] of the same compound?
**A.** > 100 µM

**Q.** What about the TGI [3] of the same compound?
**A.** > 100 µM

**Q.** And the TGI [4]?
**A.** > 100 µM

**Q.** What about the TGI [5] of the same compound?
**A.** > 100 µM

**Q.** And the TGI [6]?
**A.** > 100 µM

**Q.** What about the TGI [7] of the same compound?
**A.** > 100 µM

**Q.** And the TGI [8]?
**A.** > 100 µM

**Q.** What about the TGI [9] of the same compound?
**A.** > 100 µM

**Q.** What about the TGI [10] of the same compound?
**A.** > 100 µM

**Q.** And the TGI [11]?
**A.** > 100 µM

**Q.** And the TGI [12]?
**A.** > 100 µM

**Q.** And the TGI [13]?
**A.** > 100 µM

**Q.** What about the TGI [15] of the same compound?
**A.** > 100 µM

**Q.** What about the TGI [16] of the same compound?
**A.** > 100 µM

**Q.** And the TGI [17]?
**A.** > 100 µM

**Q.** And the TGI [18]?
**A.** > 100 µM

**Q.** And the TGI [19]?
**A.** > 100 µM

**Q.** What about the TGI [20] of the same compound?
**A.** > 100 µM

**Q.** What about the TGI [21] of the same compound?
**A.** > 100 µM

**Q.** What about the TGI [22] of the same compound?
**A.** > 100 µM

**Q.** What about the TGI [23] of the same compound?
**A.** > 100 µM

**Q.** What about the TGI [24] of the same compound?
**A.** > 100 µM

**Q.** What about the TGI [25] of the same compound?
**A.** > 100 µM

**Q.** What about the TGI [26] of the same compound?
**A.** > 100 µM

**Q.** What about the TGI [27] of the same compound?
**A.** > 100 µM

**Q.** What about the TGI [28] of the same compound?
**A.** > 100 µM

**Q.** And the TGI [29]?
**A.** > 100 µM

**Q.** And the TGI [30]?
**A.** > 100 µM

**Q.** What about the TGI [31] of the same compound?
**A.** > 100 µM

**Q.** And the TGI [32]?
**A.** > 100 µM

**Q.** What about the TGI [33] of the same compound?
**A.** > 100 µM

**Q.** And the TGI [34]?
**A.** > 100 µM

**Q.** And the TGI [35]?
**A.** > 100 µM

**Q.** And the TGI [36]?
**A.** > 100 µM

**Q.** What about the TGI [38] of the same compound?
**A.** > 100 µM

**Q.** What about the TGI [39] of the same compound?
**A.** > 100 µM

**Q.** And the TGI [40]?
**A.** > 100 µM

**Q.** And the TGI [41]?
**A.** > 100 µM

**Q.** What about the TGI [42] of the same compound?
**A.** > 100 µM

**Q.** And the TGI [44]?
**A.** > 100 µM

**Q.** And the TGI [45]?
**A.** > 100 µM

**Q.** And the TGI [46]?
**A.** > 100 µM

**Q.** What about the TGI [47] of the same compound?
**A.** > 100 µM

**Q.** What about the TGI [48] of the same compound?
**A.** > 100 µM

**Q.** And the TGI [49]?
**A.** > 100 µM

**Q.** What about the TGI [50] of the same compound?
**A.** > 100 µM

**Q.** And the TGI [51]?
**A.** > 100 µM

**Q.** What about the TGI [52] of the same compound?
**A.** > 100 µM

**Q.** What about the TGI [53] of the same compound?
**A.** > 100 µM

**Q.** And the TGI [54]?
**A.** > 100 µM

**Q.** What about the TGI [55] of the same compound?
**A.** > 100 µM

**Q.** And the TGI [56]?
**A.** > 100 µM

**Q.** What about the TGI [57] of the same compound?
**A.** > 100 µM
